Entries after “also recorded” stand apart in the source; their conditions may differ.

The subject of one experiment is healthy female panelists. Description: CNV test (contingent negative variation) with inhaled scent samples. It counts as in vivo, human. The conditions noted are these: 0.05% ethanol solution of each component, solo or combined; five healthy female adult panelists. An excerpt: The psycho-sedative effect was investigated by measuring negative changes in electric potential, so-called contingent negative variation (CNV). CNV is known to be a slow cerebral potential variation which relates to psychological processes such as alertness, expectation, and anticipation and to changes in the level of consciousness.
In order to screen out a compound having a psycho-sedative or psycho-stimulative effect, a light signal which indicates start of movement is emitted two seconds after stimulation with a warning sound, and a panelist is required to react (i.e., push a button) simultaneously with the recognition of the light. During repetition of a series of such processes, an aromatic product sample is arranged about 10 cm under the nose of the panelist so that its scent can be acknowledged with breathing. An electrode for the measurement of CNV is set on the forehead of the panelist so as to record electric potential between the forehead and an earlobe. It has already been reported that the CNV amplitude increases when caffeine having an arousal effect is perorally administered to humans, whereas the amplitude decreases when nitrazepam having a sedative effect is allowed to be […].
In this test, the psycho-sedative effect was evaluated by use of the percentage as an index. A relative area of 100% or less indicates a sedative effect, and a relative area of 100% or more indicates an arousal effect.
Five healthy female panelists were subjected to the aforementioned CNV test.
Five healthy female adult panelists were subjected to the aforementioned CNV test.
(B) The following samples were prepared: a 1% ethanol solution of perilla aldehyde (commercial product); a 1% ethanol solution of perilla alcohol (commercial product); a 1% ethanol solution of DMMB (commercial product); and a 1% ethanol solution of lemon oil (commercial product). Five healthy female adult panelists were subjected to the aforementioned CNV test.
The following samples were prepared: a 0.05% ethanol solution of solo perilla aldehyde (1); a 0.05% ethanol solution of solo perilla alcohol (2); and an ethanol solution containing perilla aldehyde (0.05%) and perilla alcohol (0.05%) (3). Five healthy female adult panelists were subjected to the aforementioned CNV test.
In the case of `C=C(C)C1CC=C(C=O)CC1` (centres unmarked) [perilla aldehyde, dihydrocuminyl aldehyde], the “synergistic psycho-stimulative effect by measured CNV values (FIG. 4)” value is listed as “acknowledged to have a psycho-stimulative effect”.

The same experiment, now with this note: 1% ethanol solution, scent inhaled about 10 cm under the nose; five healthy female panelists; CNV area relative to blank (100%): 100% or less sedative, 100% or more arousal.
`CC(C)=CCCC(C)CCO` (centres unmarked) [citronellol]: the “psycho-sedative / psycho-stimulative effect by measured CNV values (FIG. 1)” value was “psycho-sedative effect similar to that of DMMB”.
Turning to `CC1=CCC2C(=O)C1C2(C)C` (centres unmarked) [chrysanthenone], the “psycho-sedative / psycho-stimulative effect by measured CNV values (FIG. 1)” value is “psycho-sedative effect similar to that of DMMB”.
On to `C=CC(C)=CCC=C(C)C` [ocimene], for which the “psycho-sedative / psycho-stimulative effect by measured CNV values (FIG. 1)” value was “psycho-sedative effect similar to that of DMMB”.
As to `CC(C)=CCC/C(C)=C/CO` [geraniol], the “psycho-sedative / psycho-stimulative effect by measured CNV values (FIG. 1)” value is given as “psycho-sedative effect similar to that of DMMB”.
Regarding `CCCCCC1C(=O)CCC1CC(=O)OC` (centres unmarked) [hedione, methyl dihydrojasmonate], the “psycho-sedative / psycho-stimulative effect by measured CNV values (FIG. 1)” value was “psycho-sedative effect similar to that of DMMB”.
Regarding `CCC1CCC(=O)O1` (centres unmarked) [γ-hexalactone], the “psycho-sedative / psycho-stimulative effect by measured CNV values (FIG. 1)” value was “psycho-sedative effect similar to that of DMMB”.
Take terpinyl butyrate: the “psycho-sedative / psycho-stimulative effect by measured CNV values (FIG. 1)” value is given as “psycho-sedative effect similar to that of DMMB”.
For `CC(C=O)Cc1ccc(C(C)(C)C)cc1` (centres unmarked) [lilial], the “psycho-sedative / psycho-stimulative effect by measured CNV values (FIG. 1)” value is given as “psycho-sedative effect similar to that of DMMB”.
As for `C=CC(C)(CCC=C(C)C)OC(C)=O` (centres unmarked) [linalyl acetate], the “psycho-sedative / psycho-stimulative effect by measured CNV values (FIG. 1)” value is reported as “psycho-sedative effect similar to that of DMMB”.
On to `C=CC(C)(O)CCC=C(C)C` (centres unmarked) [linalool], for which the “psycho-sedative / psycho-stimulative effect by measured CNV values (FIG. 1)” value is on record as “psycho-sedative effect similar to that of DMMB”.
On the same count and under the same terms, the result for `CC=Cc1ccc(OC(C)=O)c(OC)c1` [acetyl isoeugenol, methoxy-4-acetoxypropenylbenzene] reads “psycho-sedative effect similar to that of DMMB”; that for `CC/C=C\CCOC(=O)c1ccccc1O` [Z-3-hexenyl salicylate, cis-3-hexenyl salicylate], “psycho-sedative effect similar to that of DMMB”; that for `CC(C=O)Cc1ccc2c(c1)OCO2` (centres unmarked) [helional], “psycho-sedative effect similar to that of DMMB”.
`CC(C)=CCC/C(C)=C\CO` [nerol]: the “psycho-sedative / psycho-stimulative effect by measured CNV values (FIG. 1)” value is “psycho-sedative effect similar to that of DMMB”.
Same read-out and setting: the result for `CC(=O)/C(C)=C/C1C(C)=CCCC1(C)C` (centres unmarked) [γ-methyl ionone] reads “psycho-sedative effect similar to that of DMMB”.
Turning to `CCCCCC1CCC(=O)O1` (centres unmarked) [γ-nonalactone], the “psycho-sedative / psycho-stimulative effect by measured CNV values (FIG. 1)” value is “psycho-sedative effect similar to that of DMMB”.
With `C=C(C)[C@H]1CC=C(C)CC1` [limonene], the “psycho-sedative / psycho-stimulative effect by measured CNV values (FIG. 1)” value is reported as “psycho-sedative effect similar to that of DMMB”.
On the same count and under the same terms, the result for `COC(=O)c1ccc(OC)cc1` [methyl anisate] reads “psycho-sedative effect similar to that of DMMB”.
Still for that read-out and setting: the result for `CC(=O)OC/C=C(\C)CCC=C(C)C` [geranyl acetate] reads “psycho-sedative effect similar to that of DMMB”; that for `Cc1ccc(CC=O)cc1` [p-methylphenylacetaldehyde], “psycho-sedative effect similar to that of DMMB”; that for `OCCc1ccccc1` [β-phenylethyl alcohol], “psycho-sedative effect similar to that of DMMB”.
`CC(C)(O)CCCC1=CCC(C=O)CC1` (centres unmarked) [lyral]: the “psycho-sedative / psycho-stimulative effect by measured CNV values (FIG. 1)” value was “psycho-sedative effect similar to that of DMMB”.
`CC(=O)C1(C)CC2=C(CCCC2(C)C)CC1C` (centres unmarked) [Iso E Super]: the “psycho-sedative / psycho-stimulative effect by measured CNV values (FIG. 1)” value is listed as “psycho-sedative effect similar to that of DMMB”.

The experiment is the same for the next values; noted with them: 1% ethanol solution; five healthy female adult panelists; CNV area relative to blank (100%).
For the compound `COc1cc(C)cc(OC)c1` [DMMB, 1,3-dimethoxy-5-methylbenzene, reference compound], the “psycho-stimulative / psycho-sedative effect by measured CNV values (FIG. 2)” value is listed as “psycho-sedative effect of DMMB was confirmed”.
With `C=C(C)C1CC=C(C=O)CC1` (centres unmarked) [perilla aldehyde, dihydrocuminyl aldehyde], the “psycho-stimulative effect by measured CNV values (FIG. 3)” value was “acknowledged to have a psycho-stimulative effect; also recorded: remarkably strong psycho-stimulative effect as compared with lemon oil”.
With `C/C=C(/C)C(=O)OCCc1ccccc1` [phenylethyl angelate, 2-phenylethyl(Z)-2-methyl-2-butenoate], the “psycho-stimulative / psycho-sedative effect by measured CNV values (FIG. 2)” value is “psycho-stimulative effect similar to that of limone oil”.
Same read-out and setting: next, `CC1=CC(=O)C(C(C)C)CC1` (centres unmarked) [piperitone, p-menth-1-en-3-one]: “psycho-stimulative effect similar to that of limone oil”; `CC(C)c1ccc(CO)cc1` [cuminyl alcohol, 4-isopropylbenzyl alcohol]: “psycho-stimulative effect similar to that of limone oil”.
Take `CC1=C2CCC(C)CC2OC1=O` (centres unmarked) [menthalactone, 3,6-dimethyl-5,6,7,7a-tetrahydro-2(4H)-benzofuranone]: the “psycho-stimulative / psycho-sedative effect by measured CNV values (FIG. 2)” value is “psycho-stimulative effect similar to that of limone oil”.
For `C/C=C(/C)C(=O)OCCC(C)C` [isoamyl angelate, isoamyl(Z)-2-methyl-2-butenoate], the “psycho-stimulative / psycho-sedative effect by measured CNV values (FIG. 2)” value was “psycho-stimulative effect similar to that of limone oil”.
Turning to `CCCCCCCCCCCCCC(=O)OCC` [ethyl myristate, ethyl tetradecanoate], the “psycho-stimulative / psycho-sedative effect by measured CNV values (FIG. 2)” value is recorded as “psycho-stimulative effect similar to that of limone oil”.

System in a further experiment: not given
Test: not given
Particulars: disclosed in Japanese Patent Application Laid-Open (kokai) No. 6-172781; also through inhalation of vaporized perfume; cited from earlier work.
On to `COc1cc(C)cc(OC)c1` [DMMB, 1,3-dimethoxy-5-methylbenzene, reference compound], for which the sedative effect entry was “has a sedative effect”.

Another experiment relates to healthy female panelists.
Test: not given
The conditions noted are these: already reported; humans; caffeine perorally administered, nitrazepam allowed to be inhaled; cited from earlier work.
As to `Cn1c(=O)c2c(ncn2C)n(C)c1=O` [caffeine], the CNV amplitude change entry is given as “increases”.
Consider `O=C1CN=C(c2ccccc2)c2cc([N+](=O)[O-])ccc2N1` [nitrazepam], for which the CNV amplitude change entry is on record as “decreases”.
